Tested on: CD1 female mouse brain lipidome
Experiment: Brain-region lipid levels (HPLC/MS/MS lipidomics) 2 h after single i.p. 3 mg/kg CP 55,940 vs vehicle
Format: in vivo
Set-up: N-arachidonoyl phenylalanine level, Mean / N-stearoyl tryptophan level, Mean / N-stearoyl proline level, Mean / N-stearoyl leucine level, Mean / N-stearoyl phenylalanine level, Mean / N-stearoyl serine level, Mean / N-stearoyl methionine level, Mean: unit: moles per gram
Description: The Bloomington Institutional Animal Care and Use Committee of Indiana University reviewed and approved the animal procedures. Female mice from the CD1 strain were utilized to match our study examining THC’s effects on the brain lipidome ([Leishman et al., 2018]). Mice were given a single i.p. injection of either 3 mg/kg CP or 1:1:18 cremophor:ethanol:saline vehicle (please refer to the section “3 mg/kg CP Is Relevant for Synthetic Cannabinoid Abuse and Has Stronger Effects on the Female Mouse Brain Lipidome During Adolescence” for a justification of dose and use of female mice). Three different age groups were given injections: PND 35 and PND 50 adolescents, and adult mice (PND 113). At least eight mice in each age group received CP and at least eight received vehicle. Matching the THC study time course ([Leishman et al., 2018]), mice were sacrificed via rapid decapitation 2 h after injection. Brains were immediately removed and flash-frozen in liquid nitrogen, and then stored at -80°C until dissections were performed. Brains were dissected on an ice-cold dissection plate into the following regions: STR, HIPP, CER, THAL, CTX, HYP, MID, and STEM. These abbreviations for these brain areas will be used exclusively when discussing the results generated by these specific dissections. Each dissected area was immediately placed in liquid nitrogen and then stored at -80°C until used for lipid extraction.
Tissue extracts were performed as previously described ([Bradshaw et al., 2006]; [Stuart et al., 2013]; [Raboune et al., 2014]; [Leishman et al., 2016a],[b], [2017], [2018]). First, samples were shock frozen in liquid nitrogen, weighed, and transferred to a centrifuge tube. The mass of the largest sample was multiplied by 50 to determine how many milliliters of HPLC-grade methanol (Fisher, Fair Lawn, NJ, United States) to add. Then, samples were spiked with 500 pmol deuterium-labeled NAGly (d8NAGly; Cayman Chemical, Ann Arbor, MI, United States). Samples were placed on ice in darkness for 2 h then individually homogenized and centrifuged at 19,000 × g for 20 min at 20°C. Supernatants were diluted with HPLC water (purified in house) to make a solution of 75% water, 25% supernatant. Lipids were partially purified on C18 solid phase extraction columns (Agilent, Palo Alto, CA, United States). A series of four elutions with 1.5 mL of 60%, 75%, 85%, and 100% methanol were collected ([Stuart et al., 2013]; [Leishman et al., 2016a],[b], [2018]).
As previously described ([Bradshaw et al., 2006]; [Tan et al., 2006]; [Smoum et al., 2010]; [Stuart et al., 2013]; [Tortoriello et al., 2013]; [Raboune et al., 2014]; [Leishman et al., 2016a],[b], [2017], [2018]), samples were analyzed using an Applied Biosystems API 3000 triple quadrupole mass spectrometer with electrospray ionization (Foster City, CA, United States). Using an Agilent XDB-C18 reversed phase analytical column and optimized mobile phase gradients, 20 μL from each elution were chromatographed. Two Shimadzu 10ADvp pumps (Columbia, MD, United States) provided the pressure for gradient elution. Mobile phase A: 20% methanol, 80% water (v/v) and 1 mM ammonium acetate (Sigma, St. Louis, MO, United States). Mobile phase B: 100% methanol, 1 mM ammonium acetate. Every method run began with 0% mobile phase B, reached 100% mobile phase B flowing at 0.2 mL/min, and gradually returned to 0% mobile phase B.
This screening library will be referred to as the lipidome when discussing data from this study. HPLC/MS/MS data were analyzed using Analyst software (Applied Biosystems) ([Bradshaw et al., 2006]; [Tan et al., 2006]; [Stuart et al., 2013]; [Tortoriello et al., 2013]; [Raboune et al., 2014]; [Leishman et al., 2016a],[b], [2017], [2018]). Chromatograms (Supplementary Figure 3) were generated by determining the retention time of analytes from the analytical column with a [M-1] or [M+1] parent peak and a fragmentation peak corresponding to the programmed values. […]

[1] = adult female mice, brainstem, 3mg/kg CP 55,940
[2] = adult hypothalamus, 3 mg/kg CP 55,940

CCCCCCC(C)(C)c1ccc([C@@H]2C[C@H](O)CC[C@H]2CCCO)c(O)c1 [CP 55,940]
6-ketoPGF1α level, Mean [1]: 2.07E-11
Arachidonic acid level, Mean [1]: 4.08E-10
Linoleic acid level, Mean [1]: 4.56E-10
N- stearoyl valine level, Mean [1]: 2.21E-14
N-arachidonoyl proline level, Mean [1]: BDL
N-arachidonoyl serine level, Mean [1]: PISSR
N-arachidonoyl taurine level, Mean [1]: 2.62E-11
N-arachidonoyl tryptophan level, Mean [1]: BDL
N-arachidonoyl tyrosine level, Mean [1]: 6.33E-13
N-docosahexaenoyl proline level, Mean [1]: BDL
N-docosahexaenoyl serine level, Mean [1]: PISSR
N-docosahexaenoyl tryptophan level, Mean [1]: BDL
N-docosahexaenoyl tyrosine level, Mean [1]: 5.03E-13
N-docosahexaenoyl valine level, Mean [1]: BDL
N-linoleoyl proline level, Mean [1]: BDL
N-linoleoyl serine level, Mean [1]: 1.98E-11
N-linoleoyl tryptophan level, Mean [1]: BDL
N-linoleoyl tyrosine level, Mean [1]: PISSR
N-linoleoyl valine level, Mean [1]: PISSR
N-nervonoyl valine level, Mean [1]: BDL
N-oleoyl proline level, Mean [1]: BDL
N-oleoyl serine level, Mean [1]: 1.03E-10
N-oleoyl tryptophan level, Mean [1]: BDL
N-oleoyl tyrosine level, Mean [1]: 5.06E-13
N-oleoyl valine level, Mean [1]: 1.48E-14
N-palmitoyl proline level, Mean [1]: BDL
N-palmitoyl serine level, Mean [1]: 1.08E-11
N-palmitoyl tryptophan level, Mean [1]: BDL
N-palmitoyl tyrosine level, Mean [1]: 7.4E-13
N-palmitoyl valine level, Mean [1]: 1.28E-13
N-stearoyl proline level, Mean [1]: BDL
N-stearoyl serine level, Mean [1]: 1.31E-11
N-stearoyl tryptophan level, Mean [1]: BDL
Oleic acid level, Mean [1]: 4.28E-10
PGE2 level, Mean [1]: 1.64E-10
PhosphoLEA level, Mean [1]: 2.15E-12
2-arachidonoyl glycerol level, Mean [2]: 2.11E-09
2-linoleoyl glycerol level, Mean [2]: 1.7E-10
2-oleoyl glycerol level, Mean [2]: 1.71E-09
2-palmitoyl glycerol level, Mean [2]: 1.78E-10
6-ketoPGF1α level, Mean [2]: 2.15E-11
11-OH-THC level, Mean [2]: BDL
11-nor-9-carboxyTHC level, Mean [2]: BDL
Arachidonic acid level, Mean [2]: 6.14E-10
Cannabidiol level, Mean [2]: BDL
Linoleic acid level, Mean [2]: 1.2E-10
N-arachidonoyl GABA level, Mean [2]: 2.05E-11
N-arachidonoyl dopamine level, Mean [2]: BDL
N-arachidonoyl ethanolamine level, Mean [2]: 6.61E-12
N-arachidonoyl glycine level, Mean [2]: 2.96E-13
N-arachidonoyl methionine level, Mean [2]: BDL
N-arachidonoyl phenylalanine level, Mean [2]: 1.34E-13
N-arachidonoyl proline level, Mean [2]: BDL
N-arachidonoyl serine level, Mean [2]: BDL
N-arachidonoyl taurine level, Mean [2]: 1.91E-11
N-arachidonoyl tryptophan level, Mean [2]: BDL
N-docosahexaenoyl ethanolamine level, Mean [2]: 1.18E-11
N-docosahexaenoyl methionine level, Mean [2]: BDL
N-docosahexaenoyl proline level, Mean [2]: BDL
N-docosahexaenoyl tryptophan level, Mean [2]: BDL
N-docosahexaenoyl valine level, Mean [2]: BDL
N-linoleoyl GABA level, Mean [2]: BDL
N-linoleoyl ethanolamine level, Mean [2]: 6.58E-12
N-linoleoyl methionine level, Mean [2]: BDL
N-linoleoyl proline level, Mean [2]: BDL
N-linoleoyl serine level, Mean [2]: 1.16E-10
N-linoleoyl tryptophan level, Mean [2]: BDL
N-linoleoyl tyrosine level, Mean [2]: BDL
N-linoleoyl valine level, Mean [2]: BDL
N-nervonoyl valine level, Mean [2]: BDL
N-oleoyl alanine level, Mean [2]: 4.79E-12
N-oleoyl dopamine level, Mean [2]: BDL
N-oleoyl ethanolamine level, Mean [2]: 7.29E-11
N-oleoyl glycine level, Mean [2]: 2.66E-13
N-oleoyl methionine level, Mean [2]: BDL
N-oleoyl phenylalanine level, Mean [2]: 5E-13
N-oleoyl proline level, Mean [2]: BDL
N-oleoyl serine level, Mean [2]: 5.82E-10
N-oleoyl tryptophan level, Mean [2]: BDL
N-palmitoyl GABA level, Mean [2]: 3.12E-11
N-palmitoyl alanine level, Mean [2]: 2.7E-12
N-palmitoyl ethanolamine level, Mean [2]: 2.56E-11
N-palmitoyl glycine level, Mean [2]: 2.34E-12
N-palmitoyl leucine level, Mean [2]: 1.88E-12
N-palmitoyl methionine level, Mean [2]: BDL
N-palmitoyl phenylalanine level, Mean [2]: 3.42E-13
N-palmitoyl proline level, Mean [2]: BDL
N-palmitoyl tryptophan level, Mean [2]: BDL
N-palmitoyl tyrosine level, Mean [2]: 1.11E-12
N-palmitoyl valine level, Mean [2]: 1.56E-13
N-stearoyl alanine level, Mean [2]: 2.77E-12
N-stearoyl ethanolamine level, Mean [2]: 7.07E-12
N-stearoyl glycine level, Mean [2]: 2.2E-12
N-stearoyl leucine level, Mean [2]: 1.65E-12
N-stearoyl methionine level, Mean [2]: BDL
N-stearoyl phenylalanine level, Mean [2]: 2.86E-13
N-stearoyl proline level, Mean [2]: BDL
N-stearoyl serine level, Mean [2]: 4.88E-11
N-stearoyl tryptophan level, Mean [2]: BDL
Oleic acid level, Mean [2]: 2.14E-10
PGE2 level, Mean [2]: 2.25E-10
PhosphoLEA level, Mean [2]: 5.73E-11

From article PMC6277767, “Broad and Region-Specific Impacts of the Synthetic Cannabinoid CP 55,940 in Adolescent and Adult Female Mouse Brains” (Frontiers in Molecular Neuroscience, 2018)
